Data on 19 molecules can be found in US20240317758A1 (Halia Therapeutics, Inc., priority 2021, published 2024).

For this test, the target named is T1, full-length recombinant human NEK7 (Homo sapiens, UniProt Q8TDX7).
T1 construct: full-length recombinant human NEK7; GST (N); purchased SignalChem NO9-10G; host or cells: Sf9 insect cells (baculovirus)
Description: NEK7 enzymatic assay. The settings on record: recombinant human NEK7, casein substrate, radiolabelled ATP. It is filed as biochemical. On the procedure:
Casein substrate (from bovine milk, hydrolyzed and partially dephosphorylated mixture of α, β and κ caseins, obtained from Sigma Aldrich, catalogue #C4765, diluted in distilled water to a final concentration of 1 mg/mL) and full-length recombinant human NEK7 (expressed by baculovirus in Sf9 insect cells using a N-terminal GST tag, obtained from SignalChem, catalogue #NO9-10G, 0.1 μg/μL) were mixed in assay buffer (20 mM Hepes pH 7.5, 10 mM MgCl2, 1 mM EGTA, 0.02% Brij35, 0.02 mg/ml BSA, 0.1 mM Na3VO4, 2 mM DTT, 1% DMSO). Compounds of interest (serial 3-fold dilution in DMSO from 10 μM to 0.5 nM) or vehicle (1% DMSO) were dispensed into the kinase reaction mixture by Acoustic technology (Echo550; nanoliter range). After incubation at room temperature for 20 minutes, the kinase reaction was initiated by addition of [^33P]-ATP (specific activity 10 μCi/μl) and the mixture was incubated at room temperature for 2 hours. The reaction was then stopped by spotting the reaction mixture on strips of phosphocellulose P81 paper. Following washing, the radioactivity of the P81 paper was measured and kinase activity data were expressed as the percent remaining kinase activity in test samples compared to vehicle reactions. IC50 values and curve fits were obtained using Prism (GraphPad Software).
Casein substrate (from bovine milk, hydrolyzed and partially dephosphorylated mixture of α, β and κ caseins, obtained from Sigma Aldrich, catalogue #C4765, diluted in distilled water to a final concentration of 1 mg/mL, assay concentration 20 μM) and full-length recombinant human Nek7 (expressed by baculovirus in Sf9 insect cells using a N-terminal GST tag, obtained from SignalChem, catalogue #NO9-10G, 0.1 μg/μL, assay concentration 70 nM) were mixed in assay buffer (20 mM Hepes pH 7.5, 10 mM MgCl2, 1 mM EGTA, 0.02% Brij35, 0.02 mg/ml BSA, 0.1 mM […], 2 mM DTT, 1% DMSO). Compounds of interest (in DMSO, serial 3-fold dilution from 10 μM to 0.5 nM) or control (1% DMSO) were dispensed into the kinase reaction mixture by Acoustic technology (Echo550; nanoliter range). After incubation at room temperature for 20 minutes, the kinase reaction was initiated by addition of [^32P]-ATP (Specific activity 10 μCi/μl) and the mixture was incubated at room temperature for 2 hours. The reaction was then stopped by spotting the reaction mixture on strips of phosphocellulose P81 paper. Following washing, the radioactivity of the P81 paper was measured and kinase activity data were expressed as the percent remaining kinase activity in test samples compared to vehicle (dimethyl sulfoxide) reactions. IC50 values and curve fits were obtained using Prism (GraphPad Software).

pIC50: −log10 of the molar value. Where only a bound is given, the exact number is not on record here.

T1 sequence (Q8TDX7 whole entry): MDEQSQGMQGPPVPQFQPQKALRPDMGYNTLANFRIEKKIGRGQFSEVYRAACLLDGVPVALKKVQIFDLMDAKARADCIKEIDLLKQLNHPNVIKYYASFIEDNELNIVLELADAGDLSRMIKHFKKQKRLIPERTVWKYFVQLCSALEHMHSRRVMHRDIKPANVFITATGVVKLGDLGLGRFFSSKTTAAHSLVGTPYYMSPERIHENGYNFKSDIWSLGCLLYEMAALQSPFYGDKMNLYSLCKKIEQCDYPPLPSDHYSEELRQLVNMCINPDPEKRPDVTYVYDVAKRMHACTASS

As for `CN1CCC(Oc2ccc(NC(=O)Nc3ccc(-c4cn(C5CC5)c5ncnc(N)c45)cc3F)cc2C(F)(F)F)C(F)C1` (single isomer, unassigned) [Example I-89, 1-(4-(4-amino-7-cyclopropyl-7H-pyrrolo[2,3-d]pyrimidin-5-yl)-2-fluorophenyl)-3-(4-((3-fluoro-1-methylpiperidin-4-yl)oxy)-3-(trifluoromethyl)phenyl)urea], the pIC50 is 6.30 to 7.00.

Turning to `CN1CCN(Cc2ccc(NC(=O)Nc3ccc(-c4cn(C5CC5)c5ncnc(N)c45)cc3Cl)cc2C(F)(F)F)CC1` [Example I-35, 1-(4-(4-amino-7-cyclopropyl-7H-pyrrolo[2,3-d]pyrimidin-5-yl)-2-chlorophenyl)-3-(4-((4-methylpiperazin-1-yl)methyl)-3-(trifluoromethyl)phenyl)urea], the pIC50 is 6.30 to 7.00.

For the molecule `CN1CCN(Cc2ccc(NC(=O)Nc3ccc(-c4cn(C5CC5)c5ncnc(N)c45)cc3F)cc2Cl)CC1` [Example I-37, 1-(4-(4-amino-7-cyclopropyl-7H-pyrrolo[2,3-d]pyrimidin-5-yl)-2-fluorophenyl)-3-(3-chloro-4-((4-methylpiperazin-1-yl)methyl)phenyl)urea], the pIC50 is 6.30 to 7.00.

`CN1CC2CCC(C1)N2Cc1ccc(NC(=O)Nc2ccc(-c3cn(C4CC4)c4ncnc(N)c34)cc2F)cc1C(F)(F)F` [Example I-4, 1-(4-(4-amino-7-cyclopropyl-7H-pyrrolo[2,3-d]pyrimidin-5-yl)-2-fluorophenyl)-3-(4-((3-methyl-3,8-diazabicyclo[3.2.1]octan-8-yl)methyl)-3-(trifluoromethyl)phenyl)urea]: the pIC50 was 6.30 to 7.00.

In the case of `CN1CCN(Cc2ccc(NC(=O)Nc3ccc(-c4cn(C5CC5)c5ncnc(N)c45)cc3F)cc2C(F)(F)F)CC12CC2` [Example I-73, 1-(4-(4-amino-7-cyclopropyl-7H-pyrrolo[2,3-d]pyrimidin-5-yl)-2-fluorophenyl)-3-(4-((4-methyl-4,7-diazaspiro[2.5]octan-7-yl)methyl)-3-(trifluoromethyl)phenyl)urea], the pIC50 was 5.70 to 6.30.

For `CC(C)n1cc(-c2ccc(NC(=O)Nc3ccc(CN4CCN(C)CC4)c(C(F)(F)F)c3)c(F)c2)c2c(N)ncnc21` [Example I-105, 1-(4-(4-amino-7-isopropyl-7H-pyrrolo[2,3-d]pyrimidin-5-yl)-2-fluorophenyl)-3-(4-((4-methylpiperazin-1-yl)methyl)-3-(trifluoromethyl)phenyl)urea], the pIC50 was greater than 7.00.

Turning to `CN(C)C1CCN(Cc2ccc(NC(=O)Nc3ccc(-c4cn(C5CC5)c5ncnc(N)c45)cc3F)cc2C(F)(F)F)CC1` [Example I-69], the pIC50 was greater than 7.00.

As for `CN1CCN(Cc2ccc(NC(=O)Nc3ccc(-c4nn(C5CC5)c5ncnc(N)c45)cn3)cc2C(F)(F)F)CC1` [Example I-30, 1-(5-(4-amino-1-cyclopropyl-1H-pyrazolo[3,4-d]pyrimidin-3-yl)pyridin-2-yl)-3-(4-((4-methylpiperazin-1-yl)methyl)-3-(trifluoromethyl)phenyl)urea], the pIC50 is 6.30 to 7.00.

With `CN1CCN(Cc2ccc(NC(=O)Nc3ccc(-c4cn(C5CC5)c5ncnc(N)c45)cc3F)cc2C(F)(F)F)C2(CC2)C1` [Example I-8, 1-(4-(4-amino-7-cyclopropyl-7H-pyrrolo[2,3-d]pyrimidin-5-yl)-2-fluorophenyl)-3-(4-((7-methyl-4,7-diazaspiro[2.5]octan-4-yl)methyl)-3-(trifluoromethyl)phenyl)urea], the negative logarithm of the IC50 (pIC50) was 6.30 to 7.00.

As for `CN1CCN(Cc2ccc(NC(=O)Nc3ccc(-c4cn(C5CC5)c5ncnc(N)c45)cn3)cc2C(F)(F)F)CC1` [Example I-14, 1-(5-(4-amino-7-cyclopropyl-7H-pyrrolo[2,3-d]pyrimidin-5-yl)pyridin-2-yl)-3-(4-((4-methylpiperazin-1-yl)methyl)-3-(trifluoromethyl)phenyl)urea], the pIC50 was greater than 7.00.

Turning to `Nc1ncnc2c1c(-c1ccc(NC(=O)Nc3ccc(CN4CCC(O)CC4)c(C(F)(F)F)c3)c(F)c1)cn2C1CC1` [Example I-96, 1-(4-(4-amino-7-cyclopropyl-7H-pyrrolo[2,3-d]pyrimidin-5-yl)-2-fluorophenyl)-3-(4-((4-hydroxypiperidin-1-yl)methyl)-3-(trifluoromethyl)phenyl)urea], the pIC50 was 6.30 to 7.00.

As to `Cc1cc(NC(=O)Nc2ccc(-c3nn(C4COC4)c4ncnc(N)c34)cc2)ccc1N1CCOCC1` [Example I-23, 1-(4-(4-amino-1-(oxetan-3-yl)-1H-pyrazolo[3,4-d]pyrimidin-3-yl)phenyl)-3-(3-methyl-4-morpholinophenyl)urea], the pIC50 is less than 5.70.

As to `Nc1ncnc2c1c(-c1ccc(NC(=O)Nc3ccc(CN4CCN(S(=O)(=O)C5CC5)CC4)c(C(F)(F)F)c3)c(F)c1)cn2C1CC1` [Example I-97, 1-(4-(4-amino-7-cyclopropyl-7H-pyrrolo[2,3-d]pyrimidin-5-yl)-2-fluorophenyl)-3-(4-((4-(cyclopropylsulfonyl)piperazin-1-yl)methyl)-3-(trifluoromethyl)phenyl)urea], the pIC50 was 5.70 to 6.30.

Regarding `CNC1CCN(Cc2ccc(NC(=O)Nc3ccc(-c4cn(C5CC5)c5ncnc(N)c45)cc3F)cc2C(F)(F)F)CC1` [Example I-74, 1-(4-(4-amino-7-cyclopropyl-7H-pyrrolo[2,3-d]pyrimidin-5-yl)-2-fluorophenyl)-3-(4-((4-(methylamino)piperidin-1-yl)methyl)-3-(trifluoromethyl)phenyl)urea], the pIC50 was 6.30 to 7.00.

On to `CN1CC2(C1)CN(Cc1ccc(NC(=O)Nc3ccc(-c4cn(C5CC5)c5ncnc(N)c45)cc3F)cc1C(F)(F)F)C2` [Example I-7, 1-(4-(4-amino-7-cyclopropyl-7H-pyrrolo[2,3-d]pyrimidin-5-yl)-2-fluorophenyl)-3-(4-((6-methyl-2,6-diazaspiro[3.3]heptan-2-yl)methyl)-3-(trifluoromethyl)phenyl)urea], for which the pIC50 is less than 5.70.

As to `CN1CCN(Cc2c(F)cc(NC(=O)Nc3ccc(-c4cn(C5CC5)c5ncnc(N)c45)cc3F)cc2C(F)(F)F)CC1` [Example I-12, 1-(4-(4-amino-7-cyclopropyl-7H-pyrrolo[2,3-d]pyrimidin-5-yl)-2-fluorophenyl)-3-(3-fluoro-4-((4-methylpiperazin-1-yl)methyl)-5-(trifluoromethyl)phenyl)urea], the pIC50 is greater than 7.00.

For `Cc1cc(NC(=O)Nc2ccc(-c3cn(C4CC4)c4ncnc(N)c34)cc2F)ccc1CN1CCN(C)CC1` [Example I-39, 1-(4-(4-amino-7-cyclopropyl-7H-pyrrolo[2,3-d]pyrimidin-5-yl)-2-fluorophenyl)-3-(3-methyl-4-((4-methylpiperazin-1-yl)methyl)phenyl)urea], the pIC50 was less than 5.70.

With `CN1CCN(Cc2ccc(NC(=O)Nc3ccc(-c4cn(CCO)c5ncnc(N)c45)cc3F)cc2C(F)(F)F)CC1` [Example I-71, 1-(4-(4-amino-7-(2-hydroxyethyl)-7H-pyrrolo[2,3-d]pyrimidin-5-yl)-2-fluorophenyl)-3-(4-((4-methylpiperazin-1-yl)methyl)-3-(trifluoromethyl)phenyl)urea], the pIC50 was greater than 7.00.

`CN1CCN(Cc2ccc(NC(=O)Nc3ccc(-c4cn(CCC(=O)O)c5ncnc(N)c45)cc3F)cc2C(F)(F)F)CC1` [Example I-106, 3-(4-amino-5-(3-fluoro-4-(3-(4-((4-methylpiperazin-1-yl)methyl)-3-(trifluoromethyl)phenyl)ureido)phenyl)-7H-pyrrolo[2,3-d]pyrimidin-7-yl)propanoic acid]: the pIC50 was greater than 7.00.

A word on the pIC50: it is the negative decadic logarithm of the IC50, by convention in mol/L.
